Measured values as given in US20220267260A1, “COMPOUNDS CONTAINING A SULFONIC GROUP AS KAT INHIBITORS” (Epizyme, Inc., priority 2016, published 2022).

Tests used:
[1] = biological target: T1, KAT6A (Homo sapiens, UniProt Q92794); test: KAT6A enzyme inhibition assay (SAMDI mass spectrometry); assay type: biochemical; details: His-TEV-KAT6A 501-784 enzyme construct
T1 construct: His-TEV tag (N, cleaved yes); made in house

[2] = biological target: T2, KAT5 (Homo sapiens, UniProt Q92993); test: KAT5 enzyme inhibition assay (SAMDI mass spectrometry); assay type: biochemical; details: His-TEV-FL KAT5-Flag enzyme construct
T2 construct: His-TEV tag (N, cleaved yes); made in house
T2 sequence (Q92993 with tags, fused parts or gaps): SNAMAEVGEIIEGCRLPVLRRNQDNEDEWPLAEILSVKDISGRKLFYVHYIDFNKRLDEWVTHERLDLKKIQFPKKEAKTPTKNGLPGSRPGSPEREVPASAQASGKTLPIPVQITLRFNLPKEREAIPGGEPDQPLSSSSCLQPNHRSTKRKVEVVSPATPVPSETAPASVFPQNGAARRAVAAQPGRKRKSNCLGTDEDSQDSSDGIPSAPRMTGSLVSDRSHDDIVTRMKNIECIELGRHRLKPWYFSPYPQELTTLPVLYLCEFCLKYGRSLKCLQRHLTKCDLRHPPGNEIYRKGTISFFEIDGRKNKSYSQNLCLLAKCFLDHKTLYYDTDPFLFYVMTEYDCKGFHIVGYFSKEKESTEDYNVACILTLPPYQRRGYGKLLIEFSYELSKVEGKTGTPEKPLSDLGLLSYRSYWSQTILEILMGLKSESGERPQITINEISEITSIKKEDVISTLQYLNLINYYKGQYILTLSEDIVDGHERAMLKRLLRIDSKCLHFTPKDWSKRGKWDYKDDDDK

T1 sequence (Q92794 with tags, fused parts or gaps): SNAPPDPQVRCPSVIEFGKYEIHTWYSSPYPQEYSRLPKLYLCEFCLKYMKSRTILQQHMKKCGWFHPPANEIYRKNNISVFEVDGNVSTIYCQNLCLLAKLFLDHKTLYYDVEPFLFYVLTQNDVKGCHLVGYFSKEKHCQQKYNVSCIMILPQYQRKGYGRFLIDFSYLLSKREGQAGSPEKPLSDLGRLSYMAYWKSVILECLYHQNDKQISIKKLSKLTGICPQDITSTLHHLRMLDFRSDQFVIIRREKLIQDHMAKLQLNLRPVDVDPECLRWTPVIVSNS

Structure (SMILES) | IC50 [1] [µM] | IC50 [2] [µM]
COCCN1CC(S(=O)(=O)NNC(=O)c2cccc(C)c2F)C1 [Compound I-103] | > 100 | > 100
Cc1cc(-c2ccccc2)cc(C(=O)N2CC(S(=O)(=O)c3ccccc3)C2)c1F [Compound I-199] | > 100 | > 100
Cc1cc(-c2ccccc2)nc(C(=O)NNS(=O)(=O)C2CCCCC2)c1F [Compound I-483] | > 100 | 50 to 100
Cc1cccc(C(=O)NNS(=O)(=O)Cc2ccccc2)c1F [Compound I-39] | > 100 | 10 to 50
Cn1cnc2cc(-c3ccccc3)c(F)c(C(=O)NNS(=O)(=O)C3CCCCC3)c21 [Compound I-402] | > 100 | > 100
O=C(NNS(=O)(=O)c1ccccc1)c1cnn(-c2ccccc2)c1 [Compound I-197] | > 100 | > 100
COc1cc(C)c(F)c(C(=O)NNS(=O)(=O)C2CCCCC2)c1 [Compound I-391] | > 100 | ≤ 10
Cc1cc(-c2ccccc2)cc(C(=O)NS(=O)(=O)N2CCCC2)c1F [Compound I-151] | > 100 | > 100
CNC(=O)CCNC(=O)c1cc(Cl)c(F)c(C(=O)NNS(=O)(=O)C2CCOCC2)c1 [Compound I-493] | > 100 | > 100
Cc1cc(-c2ccccc2)cc(C(=O)NCC(O)c2ccccc2)c1F (centres unmarked) [Compound I-178] | > 100 | > 100
CN1CCC(c2ccc(F)c(C(=O)NNS(=O)(=O)C3CCCCC3)c2)C1 (centres unmarked) [Compound I-407] | > 100 | > 100
O=C(NNS(=O)(=O)c1cccc(-c2ccccc2)c1)C1CCCCC1 [Compound I-522] | > 100 | > 100
O=C(NNS(=O)(=O)C1CCCCC1)c1cc(-c2ccccc2)cc2[nH]cnc12 [Compound I-375] | 50 to 100 | 50 to 100
COc1cc(Cl)c(F)c(C(=O)NNS(=O)(=O)C2CCCCC2)c1 [Compound I-393] | > 100 | ≤ 10
Cc1cc(-c2ccccc2)cc(C(=O)NNS(=O)(=O)C(C)C)c1F [Compound I-3] | 50 to 100 | 10 to 50
O=S(=O)(NNc1n[nH]c2c(F)cccc12)c1ccccc1 [Compound I-48] | > 100 | > 100
Cc1ccc(-c2csc(NS(=O)(=O)c3cccc(C(=O)O)c3)n2)cc1C [Compound I-520] | > 100 | > 100
CC(C)C(Cc1ccccc1)CS(=O)(=O)NNC(=O)c1ccccc1 (centres unmarked) [Compound I-265] | > 100 | > 100
Cn1ccc2c(C(=O)NNS(=O)(=O)c3ccccc3)cc(-c3ccccc3)cc21 [Compound I-17] | > 100 | 50 to 100
Cc1cc(-c2cccc(F)c2)cc(C(=O)NNS(=O)(=O)CC2CCCNC2)c1F (centres unmarked) [Compound I-278] | > 100 | 50 to 100
O=C(NNS(=O)(=O)c1ccccc1)c1n[nH]c2ccccc12 [Compound I-196] | 50 to 100 | > 100
Nc1ncc(-c2ccc(-c3ccccc3)cc2F)n1S(=O)(=O)c1ccccc1 [Compound I-284] | > 100 | > 100
Cc1c(F)cc(-c2ccccc2)cc1C(=O)NNS(=O)(=O)c1ccccc1 [Compound I-205] | 50 to 100 | > 100
Cc1cc(-c2ccccc2)cc(C(=O)Nc2cn[nH]c2)c1F [Compound I-213] | > 100 | > 100
Cc1c(-c2ccccc2)ccc(F)c1C(=O)NNS(=O)(=O)C1CCCC1 [Compound I-249] | > 100 | > 100
CN1CCN(Cc2cc(Cl)c(F)c(C(=O)NNS(=O)(=O)C3CCOCC3)c2)CC1 [Compound I-442] | > 100 | > 100
O=C(NNS(=O)(=O)C1CCOCC1)c1cc(Cn2ccnc2)cc(Cl)c1F [Compound I-440] | > 100 | > 100

Continued, values first:

IC50 [1] [µM] | IC50 [2] [µM] | Structure (SMILES)
10 to 50 | 10 to 50 | COCCC(=O)N1CCC(S(=O)(=O)NNC(=O)c2cc(-c3ccccc3)cc(C)c2F)CC1 [Compound I-109]
≤ 10 | 10 to 50 | COc1cc(-c2ccccc2)cc(C(=O)NNS(=O)(=O)c2ccccc2)c1F [Compound I-129]
≤ 10 | 50 to 100 | CCC(=O)N1CCCC(S(=O)(=O)NNC(=O)c2cc(-c3ccccc3)cc(C)c2F)C1 (centres unmarked) [Compound I-110]
10 to 50 | 10 to 50 | CCC(=O)N1CCC(S(=O)(=O)NNC(=O)c2cc(-c3ccccc3)cc(C)c2F)CC1 [Compound I-107]
≤ 10 | 10 to 50 | O=C(NNS(=O)(=O)c1cccc(Cl)c1)c1cc(-c2ccccc2)ccc1F [Compound I-152]
10 to 50 | 10 to 50 | Cc1cc(-c2ccccc2)cc(C(=O)NNS(=O)(=O)C2CCN(C(=O)C(C)C)C2)c1F (centres unmarked) [Compound I-105]
10 to 50 | 10 to 50 | Cc1cc(-c2ccccc2)cc(C(=O)NNS(=O)(=O)CC2CCCN(CCO)C2)c1F (centres unmarked) [Compound I-339]
≤ 10 | ≤ 10 | Cc1cc(-c2ccccc2)cc(C(=O)NNS(=O)(=O)c2cccc(OCc3ccccc3)c2)c1F [Compound I-210]
≤ 10 | ≤ 10 | CC(=O)N1CCOC(CS(=O)(=O)NNC(=O)c2cc(-c3ccccc3)cc(C)c2F)C1 (centres unmarked) [Compound I-427]
≤ 10 | ≤ 10 | O=C(NNS(=O)(=O)CC1CCOCC1)c1cc(-c2cccc(F)c2)cc(Cl)c1F [Compound I-397]
≤ 10 | ≤ 10 | Cc1cc(-c2ccccc2)cc(C(=O)NNS(=O)(=O)Cc2ccc(F)cc2)c1F [Compound I-84]
10 to 50 | ≤ 10 | COCCOc1cccc(-c2cc(C)c(F)c(C(=O)NNS(=O)(=O)CC3CCCCC3)c2)c1 [Compound I-270]
10 to 50 | 50 to 100 | Cc1c(-c2ccccc2)ccc(F)c1C(=O)NNS(=O)(=O)c1ccc(Cl)cc1 [Compound I-241]
≤ 10 | 10 to 50 | Cc1cc(-c2ccccc2)cc(C(=O)NNS(=O)(=O)C2CCCN(C(=O)C(C)C)C2)c1F (centres unmarked) [Compound I-111]
≤ 10 | ≤ 10 | CC(=O)N1CCCC(CS(=O)(=O)NNC(=O)c2cc(-c3cccc(F)c3)cc(C)c2F)C1 (centres unmarked) [Compound I-330]
50 to 100 | 50 to 100 | CCc1cccc(-c2cc(C)c(F)c(C(=O)NNS(=O)(=O)CC3CCCCC3)c2)c1 [Compound I-373]
10 to 50 | 50 to 100 | O=C(NNS(=O)(=O)C1CCCCC1)c1cc(-c2cc(F)cc(Cl)c2)cc(Cl)c1F [Compound I-490]
10 to 50 | 10 to 50 | Cc1cc(-c2ccccc2)cc(C(=O)NNS(=O)(=O)C2CCN(Cc3ccc(Cl)cc3)C2)c1F (centres unmarked) [Compound I-24]
≤ 10 | ≤ 10 | Cc1cc(-c2ccccc2)cc(C(=O)NNS(=O)(=O)CC2CCCN(C(=O)OC(C)(C)C)C2)c1F (centres unmarked) [Compound I-352]

IC50 [1] [µM] | IC50 [2] [µM] | Structure (SMILES)
10 to 50 | > 100 | Cc1cc(-c2ccccc2)cc(C(=O)NNS(=O)(=O)C2CN(CCc3ccccc3)C2)c1F [Compound I-62]
≤ 10 | ≤ 10 | O=C(NNS(=O)(=O)c1ccc2ccccc2c1)c1c(F)ccc(-c2ccccc2)c1F [Compound I-164]
10 to 50 | 10 to 50 | CC(=O)N1CCCC(S(=O)(=O)NNC(=O)c2cc(-c3ccccc3)cc(C)c2F)C1 (centres unmarked) [Compound I-102]
≤ 10 | > 100 | Cc1cccc(S(=O)(=O)NNC(=O)c2cccc(-c3ccccc3)c2F)c1 [Compound I-226]
10 to 50 | 10 to 50 | Cc1cc(-c2ccccc2)cc(C(=O)NNS(=O)(=O)C2CN(C(=O)OCc3ccccc3)C2)c1F [Compound I-121, Benzyl 3-((2-(4-fluoro-5-methyl-[1,1′-biphenyl]-3-carbonyl)hydrazinyl)sulfonyl)azetidine-1-carboxylate]
≤ 10 | ≤ 10 | COCC(=O)N1CCCC(CS(=O)(=O)NNC(=O)c2cc(-c3cccc(F)c3)cc(C)c2F)C1 (centres unmarked) [Compound I-289]
≤ 10 | 10 to 50 | Cc1cc(-c2ccccc2)cc(C(=O)NNS(=O)(=O)c2ccc(CO)cc2)c1F [Compound I-147]
10 to 50 | > 100 | Cc1cc(-c2ccccc2)cc(C(=O)N(C)NS(=O)(=O)c2ccccc2)c1F [Compound I-215]
≤ 10 | ≤ 10 | COCC(=O)N1CCC(CS(=O)(=O)NNC(=O)c2cc(-c3ccccc3)cc(C)c2F)C1 (centres unmarked) [Compound I-356]
10 to 50 | 10 to 50 | O=C(NNS(=O)(=O)CC1CCOCC1)c1cc(CO)cc(Cl)c1F [Compound I-466]
≤ 10 | ≤ 10 | CC(C)(C)OC(=O)N1CCCC(CS(=O)(=O)NNC(=O)c2cc(-c3ccccc3)cc(Cl)c2F)C1 (centres unmarked) [Compound I-401]
10 to 50 | 10 to 50 | Cc1cc(-c2ccccc2)cc(C(=O)NNS(=O)(=O)CC2CCCN(C)C2)c1F (centres unmarked) [Compound I-337]
≤ 10 | ≤ 10 | Cc1cc(-c2ccccc2)cc(C(=O)NNS(=O)(=O)c2cccc(F)c2)c1F [Compound I-214]
10 to 50 | 10 to 50 | COc1ccccc1CN1CC(S(=O)(=O)NNC(=O)c2cc(-c3ccccc3)cc(C)c2F)C1 [Compound I-22, N′-(4-fluoro-5-methyl-[1,1′-biphenyl]-3-carbonyl)-1-(2-methoxybenzyl)azetidine-3-sulfonohydrazide]
10 to 50 | > 100 | O=C(NNS(=O)(=O)c1ccccc1)c1c(F)cccc1F [Compound I-166]
≤ 10 | ≤ 10 | Cc1cc(-c2ccccc2)cc(C(=O)NNS(=O)(=O)CC2CN(C(=O)OC(C)(C)C)C2)c1F [Compound I-207]
10 to 50 | 10 to 50 | O=C(NNS(=O)(=O)c1ccccc1)c1cc(-c2ccccc2)cc2[nH]cnc12 [Compound I-53]
10 to 50 | > 100 | Cc1cc(-c2ccccc2)cc(C(=O)NNS(=O)(=O)C2CN(Cc3ccccc3)C2)c1F [Compound I-61]
